Laboratory results reported in US8367360B2, “Method of screening for inhibitors of tau protein phosphororylation by tyrosine kinase c-Abl” (Proteome Sciences plc, priority 2004, dated 2013).
“Also recorded” adds a separate entry of the source. Values belong to the molecule of their own block, whether it stands above or below them.

Assays:
[1] = tested on: COS-7 cells transfected with V5 tagged human tau; assay: Phosphorylation of tyrosine residues in tau in cultured cells treated with pervanadate; type: cell-based; settings: 20 minutes, Y394-only mutant and wild-type tau
Description: In a first set of experiments, COS-7 cells were transiently transfected with V5 tagged human tau longest isoform or with V5 tagged mutants of tau where one tyrosine has been replaced by one phenylalanine (named Y18F, Y29F, Y197F, Y310F and Y394F) constructs. In a second set of experiments, COS-7 cells were transiently transfected with the V5 tagged tau (441) construct or with V5 tagged mutants of tau where only one tyrosine is remaining, the four other tyrosines being replaced by phenyalanine (named Y18-only, Y29-only, Y197-only, Y310-only and Y394-only according to the remaining tyrosine). In order to increase tau tyrosine phosphorylation, cells were treated with the tyrosine phosphatase inhibitor pervanadate for 20 minutes. Cells were harvested in NETF buffer (100 mM NaCl, 2 mM EGTA, 50 mM Tris-Cl pH 7,4 and 50 mM NaF) containing 1% NP-40, 2 mM orthovanadate and protease inhibitors. Samples were precleared with 40 μl of protein G-Sepharose beads, and immunoprecipitations were carried out with monoclonal anti-V5 antibodies preadsorbed on protein G-Sepharose beads. Cells were harvested in NETF lysis buffer containing 1% NP-40 and tau was immunoprecipitated using an anti-V5 antibody. […] Quantification was achieved by scanning the autoradiograms with GS710 Calibrated Imaging Densitometer (Bio-Rad) and measurement of relative optical density with Quantity One 4.0.3 software (Bio-Rad).

[2] = biological target: V5 tagged human tau mutant Y18F (human) (UniProt P10636); assay: cell-based or functional assay
[3] = biological target: V5 tagged human tau mutant Y310F (human) (UniProt P10636); assay: cell-based or functional assay
[4] = tested on: primary rat neuronal cultures; assay: Amyloid beta treatment of neurons and isolation of lipid rafts; type: cell-based
Method: Rat and human primary cortical neuronal cultures were treated with fibrillar Aβ25-35 or Aβ1-42 for 1-30 min. Lipid rafts were prepared from control untreated and Aβ-treated neuronal cultures by scraping the cells from one 80 cm^2 flask into 2 ml 1% Triton X-100 in 25 mM Mes, pH 6.5 containing protease inhibitors. Cells were disrupted by Dounce homgenization. The homogenate was mixed with 2 ml of 90% sucrose (w/v) in 25 mM Mes, 150 mM NaCl pH 6.5 and placed in a 12 ml centrifuge tube. A 5-35% step sucrose gradient was formed by overlaying the homogenate mix with 4 ml of a 35% (w/v) sucrose solution followed by 4 ml of a 5% (w/v) sucrose solution. This was then centrifuged at 39,000 rpm for 18 hr in a Beckman SW41 rotor. 1 ml fractions were collected from the top of each gradient. The lipid raft fraction partitioned at the interface between the 5% (w/v) sucrose layer and the 35% sucrose (w/v) layer, fractions 4 and 5. Lipid raft fractions were concentrated by mixing the raft fractions (4 and 5) with 10 ml dd H2O and centrifuging at 39,000 rpm for 2 h in a Beckman SW41 rotor. The supernatant was aspirated and the remaining pellet was resuspended in 100 μl of 2× sample buffer. Western blots of lipid raft proteins were probed for antibodies to flotillin and protein loading corrected by scanning densitometry. Tau was detected in lipid rafts by probing western blots of lipid raft proteins using a polyclonal anti-tau antibody (DAKO).

[5] = biological target: V5 tagged human tau mutant Y197F (human) (UniProt P10636); assay: cell-based or functional assay
[6] = biological target: V5 tagged human tau mutant Y394F (human) (UniProt P10636); assay: cell-based or functional assay
[7] = pre-treatment of neuronal cultures with inhibitor before exposure to Aβ

Molecule: pervanadate
tyrosine phosphorylation of tau (4G10 western on immunoprecipitated tau) [1]: induces an increase in tyrosine phosphorylation

tyrosine phosphorylation of immunoprecipitated tau (4G10 Western blot), CHO cells co-transfected with Fyn (% of the wild-type control) [2]: 50 | tyrosine phosphorylation of immunoprecipitated tau (4G10 Western blot), CHO cells co-transfected with Fyn (% of the wild-type control) [3]: 50
Molecule: Fyn tyrosine kinase (expressed from Fyn cDNA in CHO cells) (from UniProt P06241 1-537) (enzyme)

Molecule: CC(C)(C)n1nc(-c2ccc(Cl)cc2)c2c(N)ncnc21 [PP2]
Aβ-induced increase in tyrosine phosphorylation of lipid raft proteins ([4]; inhibitor given with Aβ treatment, primary rat neuronal cultures, western blot of lipid rafts): abrogated | Aβ-induced recruitment of Fyn to lipid rafts [4, 7]: blocking of the recruitment | Aβ-induced recruitment/partitioning of tau into lipid rafts [4, 7]: abrogated; also recorded: blocking of the recruitment

Molecule: Aβ1-42: fibrillar amyloid β-peptide 1-42 used to treat neurons
tyrosine phosphorylation of neuronal protein components of lipid rafts ([4]; peptide treatment of primary rat neuronal cultures): rapid increase

tyrosine phosphorylation of immunoprecipitated tau (4G10 Western blot), CHO cells co-transfected with AblΔXB (% of the wild-type control) [5]: 70 | tyrosine phosphorylation of immunoprecipitated tau (4G10 Western blot), CHO cells co-transfected with AblΔXB (% of the wild-type control) [3]: 70 | tyrosine phosphorylation of immunoprecipitated tau (4G10 Western blot), CHO cells co-transfected with AblΔXB (% of the wild-type control) [6]: 25
Molecule: AblΔXB (a constitutively active form of Abl, with deletion of most of the SH3 domain) (enzyme)
